Assays:
[1] = Plasma concentrations of tertiary amines and their N-oxides in mice (LC-MS); conditions: mouse, in vivo
Description: The LC-MS system consists of 2 Perkin elmer series 200 micro pumps. The pumps are connected to each other by a 50 μl tee mixer, connected to a Gilson 215 auto sampler. The method is as follows:
The auto sampler has a 2 μl injection loop. The auto sampler is connected to a Waters Atlantis C18 30*4.6 mm column with 3 μm particles. The column is thermo stated in a Perkin Elmer series 200 column oven at 40° C. The column is connected to a Perkin Elmer series 200 UV meter with a 2.7 μl flowcel. The wavelength is set to 254 nm. The UV meter is connected to a Sciex API 150EX mass spectrometer. The mass spectrometer has the following parameters: Scanrange: 150-900 a.m.u.; polarity: positive; scan mode: profile; resolution Q1: UNIT; step size: 0.10 a.m.u.; time per scan: 0.500 sec; NEB: 10; CUR: 10; IS: 5200; TEM: 325; DF: 30; FP: 225 and EP: 10. The light scattering detector is connected to the Sciex API 150. The light scattering detector is a Sedere Sedex 55 operating at 50° C. and 3 bar N2. The complete system is controlled by a G3 powermac.
For oral (p.o.) administration: to the desired quantity (0.5-5 mg) of the solid test compound in a glass tube, some glass beads were added and the solid was milled by vortexing for 2 minutes. After addition of 1 ml of a solution of 1% methylcellulose in water and 2% (v/v) of Poloxamer 188 (Lutrol F68), the compound was suspended by vortexing for 10 minutes. The pH was adjusted to 7. Remaining particles in the suspension were further suspended by using an ultrasonic bath.
For intravenous (i.v.) administration: compounds were dissolved in physiological saline (0.9% NaCl) and the pH was adjusted to 7.
Bifeprunox, SLV308 and SLV318 as well as their respective N-oxides were individually administered (either intravenously (i.v.) or orally (p.o.)) to mice (3 animals per time point), after which their blood was analyzed by LC-MS (method see above) for both the parent amine and its N-oxide. Data were averaged (n=3), and collected in the tables below.

[2] = Metabolism to the N-oxide in man; type: in vivo; conditions: after administration of the tertiary amine
From the text: But also its N-desmethyl analog and its N-oxide were detected in the plasma of all three species, after oral administration of SLV308. In man, the N-oxide accounts for approximately 30% of the administered dose.
In man, neither bifeprunox nor SLV318 are metabolized to their respective N-oxides. […] For this reason there never has been an incentive to synthesize and study these compounds until the unexpected findings with the N-oxide of SLV308.

Structure (SMILES): O=c1[nH]c2cccc(N3CC[N+]([O-])(Cc4cccc(-c5ccccc5)c4)CC3)c2o1 [N-oxide of bifeprunox, N-Oxide of Bifeprunox]
- Analyzed in blood: Bifeprunox ([1]; iv, 0.5 mg/kg, 0 hr): 0 ng/mL
- Analyzed in blood: Bifeprunox ([1]; iv, 0.5 mg/kg, 0.5 hr): 176 ng/mL
- Analyzed in blood: N-oxide (of bifeprunox) ([1]; iv, 0.5 mg/kg, 0.5 hr): 85 ng/mL
- Analyzed in blood: Bifeprunox ([1]; iv, 0.5 mg/kg, 3 hr): 80 ng/mL
- Analyzed in blood: N-oxide (of bifeprunox) ([1]; iv, 0.5 mg/kg, 7 hr): 5 ng/mL
- Analyzed in blood: N-oxide (of bifeprunox) ([1]; iv, 0.5 mg/kg, 24 hr): 0 ng/mL
- Analyzed in blood: Bifeprunox ([1]; po, 5 mg/kg, 1 hr): 520 ng/mL
- Analyzed in blood: N-oxide (of bifeprunox) ([1]; po, 5 mg/kg, 1 hr): 70 ng/mL
- Analyzed in blood: N-oxide (of bifeprunox) ([1]; po, 5 mg/kg, 7 hr): 48 ng/mL
- Analyzed in blood: Bifeprunox ([1]; po, 5 mg/kg, 24 hr): 38 ng/mL
- Analyzed in blood: N-oxide (of bifeprunox) ([1]; po, 5 mg/kg, 24 hr): 6 ng/mL

Structure (SMILES): O=c1[nH]c2cccc(N3CCN(Cc4ccccc4)CC3)c2o1 [SLV318]
- Formation of N-oxide as metabolite (in words) [1]: does not give rise to a significant amount of N-oxide as metabolite
- Analyzed in blood: N-oxide (of SLV318) ([1]; iv, 0.5 mg/kg, 0.17 hr): 1 ng/mL
- Analyzed in blood: SLV318 ([1]; iv, 0.5 mg/kg, 0.17 hr): 164 ng/mL
- Analyzed in blood: N-oxide (of SLV318) ([1]; iv, 0.5 mg/kg, 0.5 hr): 0 ng/mL
- Analyzed in blood: SLV318 ([1]; iv, 0.5 mg/kg, 0.5 hr): 51 ng/mL
- Analyzed in blood: N-oxide (of SLV318) ([1]; iv, 0.5 mg/kg, 1 hr): 0 ng/mL
- Analyzed in blood: SLV318 ([1]; iv, 0.5 mg/kg, 1 hr): 18 ng/mL
- Analyzed in blood: N-oxide (of SLV318) ([1]; iv, 0.5 mg/kg, 3 hr): 0 ng/mL
- Analyzed in blood: SLV318 ([1]; iv, 0.5 mg/kg, 3 hr): 2 ng/mL
- Analyzed in blood: N-oxide (of SLV318) ([1]; iv, 0.5 mg/kg, 7 hr): 0 ng/mL
- Analyzed in blood: SLV318 ([1]; iv, 0.5 mg/kg, 7 hr): 0.2 ng/mL
- Analyzed in blood: N-oxide (of SLV318) ([1]; iv, 0.5 mg/kg, 24 hr): 0 ng/mL
- Analyzed in blood: SLV318 ([1]; iv, 0.5 mg/kg, 24 hr): 0 ng/mL
- Analyzed in blood: N-oxide (of SLV318) ([1]; po, 5 mg/kg, 0.17 hr): 0 ng/mL
- Analyzed in blood: SLV318 ([1]; po, 5 mg/kg, 0.17 hr): 71 ng/mL
- Analyzed in blood: N-oxide (of SLV318) ([1]; po, 5 mg/kg, 0.5 hr): 0 ng/mL
- Analyzed in blood: SLV318 ([1]; po, 5 mg/kg, 0.5 hr): 33 ng/mL
- Analyzed in blood: N-oxide (of SLV318) ([1]; po, 5 mg/kg, 1 hr): 0 ng/mL
- Analyzed in blood: SLV318 ([1]; po, 5 mg/kg, 1 hr): 19 ng/mL
- Analyzed in blood: N-oxide (of SLV318) ([1]; po, 5 mg/kg, 3 hr): 0 ng/mL
- Analyzed in blood: SLV318 ([1]; po, 5 mg/kg, 3 hr): 9 ng/mL
- Analyzed in blood: N-oxide (of SLV318) ([1]; po, 5 mg/kg, 7 hr): 0 ng/mL
- Analyzed in blood: SLV318 ([1]; po, 5 mg/kg, 7 hr): 2 ng/mL
- Analyzed in blood: N-oxide (of SLV318) ([1]; po, 5 mg/kg, 24 hr): 0 ng/mL
- Analyzed in blood: SLV318 ([1]; po, 5 mg/kg, 24 hr): 0 ng/mL
- N-oxide as metabolite in blood plasma (in words) [2]: never detected in significant concentrations

Structure (SMILES): O=c1[nH]c2cccc(N3CC[N+]([O-])(Cc4ccccc4)CC3)c2o1 [N-oxide of SLV318, N-Oxide of SLV318]
- Analyzed in blood: N-oxide (of SLV318) ([1]; iv, 0.5 mg/kg, 24 hr): 0 ng/mL
- Analyzed in blood: SLV318 ([1]; po, 5 mg/kg, 0.17 hr): 1 ng/mL
- Analyzed in blood: SLV318 ([1]; po, 5 mg/kg, 0.5 hr): 7 ng/mL
- Analyzed in blood: N-oxide (of SLV318) ([1]; po, 5 mg/kg, 3 hr): 0 ng/mL
- Analyzed in blood: SLV318 ([1]; po, 5 mg/kg, 24 hr): 0 ng/mL

— US7750013B2, “N-oxides as prodrugs of piperazine and piperidine derivatives” (Solvay Pharmaceuticals, B.V., priority 2005, dated 2010)
